Reference: patent publication US20260184691A1, “INHIBITORS AND DEGRADERS OF PIP4K PROTEIN” (Larkspur Biosciences, Inc., priority 2022, published 2026)

target: T1, endogenous PIP4K2C C-terminally tagged with HiBiT peptide in MOLT-4 cells (Homo sapiens, UniProt Q8TBX8); assay: HiBiT PIP4K2C degradation assay in MOLT-4 cells; assay type: cell-based; settings: 24 hours, 10-point dose response, top concentration 10 micromolar, read-out: HiBIT-degradation MOLT4 PIP4k2C 24 hours DC50
T1 construct: to C-terminally tag endogenous PIP4K2C with HiBiT peptide; host or cells: MOLT-4 (CRISPR-Cas9 knock-in clone)
T1 sequence (Q8TBX8 1-421): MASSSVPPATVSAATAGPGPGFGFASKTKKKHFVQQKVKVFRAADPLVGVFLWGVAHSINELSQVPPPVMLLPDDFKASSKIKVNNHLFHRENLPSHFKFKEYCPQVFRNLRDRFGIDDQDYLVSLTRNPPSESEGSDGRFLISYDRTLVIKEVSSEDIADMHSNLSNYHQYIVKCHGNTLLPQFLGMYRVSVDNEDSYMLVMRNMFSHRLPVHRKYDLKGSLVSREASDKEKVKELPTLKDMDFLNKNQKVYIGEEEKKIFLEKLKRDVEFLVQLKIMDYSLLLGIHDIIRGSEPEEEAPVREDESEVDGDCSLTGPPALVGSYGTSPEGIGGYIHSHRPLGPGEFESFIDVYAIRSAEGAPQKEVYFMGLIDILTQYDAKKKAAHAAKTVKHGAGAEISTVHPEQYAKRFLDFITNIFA
Procedure: Following clonal selection, genotype was confirmed by Sanger sequencing. […] Nano-Glo® HiBiT Lytic Assay System was purchased from Promega (Madison, WI, Catalog number N3030). Cell culture flasks and 384-well microplates were purchased from Corning (Glendale, AZ).
To study PIP4K2C degradation, 384-well plates were plated with a 10-point dose response curve, 3-fold dilution, in duplicate with a top starting concentration of 10 micromolar. Subsequently 22,500 cells were added to each well and incubated at 37C in 5% CO2 for 24 hours. At the end of the incubation time, cells were treated with the Nano-Glo® HiBiT Lytic Detection System following the manufacturer's instructions. Luminescence was measured with a PHERAstar FSX plate reader (BMG Labtech, Cary, NC). The Levenberg-Marquardt algorithm was used to fit a Hill equation to dose-response data to calculate DC50 values (see Table 6).

SMILES	DC50
O=C(COc1ccc(NC2CCC(=O)NC2=O)cc1)NCCCCCCCCCC(=O)Nc1cncc(Nc2ncc(Cl)c(-c3cccc(-c4ccccc4)c3)n2)c1 (stereo not drawn) [Compound 55, N-(5-((4-([1,1′-biphenyl]-3-yl)-5-chloropyrimidin-2-yl)amino)pyridin-3-yl)-10-(2-(4-((2,6-dioxopiperidin-3-yl)amino)phenoxy)acetamido)decanamide]	500 to 1000 nM
O=C1CCC(N2Cc3cc(OCCCCCC(=O)N4CCC5(CC4)CCN(c4cncc(Nc6ncc(Cl)c(-c7cccc(-c8ccccc8)c7)n6)c4)C5=O)ccc3C2=O)C(=O)N1 (stereo not drawn) [Compound 88, 3-(5-((6-(2-(5-((4-([1,1′-biphenyl]-3-yl)-5-chloropyrimidin-2-yl)amino)pyridin-3-yl)-1-oxo-2,8-diazaspiro[4.5]decan-8-yl)-6-oxohexyl)oxy)-1-oxoisoindolin-2-yl)piperidine-2,6-dione]	< 500 nM
O=C1CCC(Nc2ccc(N3CCC(CC(=O)N4CCC5(CC4)CCN(c4cncc(Nc6ncc(Cl)c(N7CCOC(c8ccccc8)C7)n6)c4)C5=O)CC3)cc2)C(=O)N1 (stereo not drawn) [Compound 181, 3-((4-(4-(2-(2-(5-((5-chloro-4-(2-phenylmorpholino)pyrimidin-2-yl)amino)pyridin-3-yl)-1-oxo-2,8-diazaspiro[4.5]decan-8-yl)-2-oxoethyl)piperidin-1-yl)phenyl)amino)piperidine-2,6-dione]	< 500 nM
O=C1CCC(Nc2ccc(N3CCC(CC(=O)N4CCC5(CC4)CCN(c4cncc(Nc6ncc(Cl)c(-c7cccc(N8CCCC8)c7)n6)c4)C5=O)CC3)cc2)C(=O)N1 (stereo not drawn) [Compound 184, 3-((4-(4-(2-(2-(5-((5-chloro-4-(3-(pyrrolidin-1-yl)phenyl)pyrimidin-2-yl)amino)pyridin-3-yl)-1-oxo-2,8-diazaspiro[4.5]decan-8-yl)-2-oxoethyl)piperidin-1-yl)phenyl)amino)piperidine-2,6-dione]	< 500 nM
O=C1CCC(N2C(=O)c3ccc(OCCCCCCCC(=O)N4CCC5(CC4)CCN(c4cncc(Nc6ncc(Cl)c(-c7cccc(-c8ccccc8)c7)n6)c4)C5=O)cc3C2=O)C(=O)N1 (stereo not drawn) [Compound 73, 5-((8-(2-(5-((4-([1,1′-biphenyl]-3-yl)-5-chloropyrimidin-2-yl)amino)pyridin-3-yl)-1-oxo-2,8-diazaspiro[4.5]decan-8-yl)-8-oxooctyl)oxy)-2-(2,6-dioxopiperidin-3-yl)isoindoline-1,3-dione]	< 500 nM
O=C1CCC(N2Cc3cc(OCCCCCCC(=O)N4CCC5(CC4)CC(=O)N(c4cncc(Nc6ncc(Cl)c(-c7cccc(-c8ccccc8)c7)n6)c4)C5)ccc3C2=O)C(=O)N1 (stereo not drawn) [Compound 166, 3-(5-((7-(2-(5-((4-([1,1′-biphenyl]-3-yl)-5-chloropyrimidin-2-yl)amino)pyridin-3-yl)-3-oxo-2,8-diazaspiro[4.5]decan-8-yl)-7-oxoheptyl)oxy)-1-oxoisoindolin-2-yl)piperidine-2,6-dione]	< 500 nM
O=C1CCC(N2C(=O)c3ccc(OCCCCCCC(=O)N4CCC5(CC4)CCN(c4cncc(Nc6ncc(Cl)c(-c7cccc(-c8ccccc8)c7)n6)c4)C5=O)cc3C2=O)C(=O)N1 (stereo not drawn) [Compound 74, 5-((7-(2-(5-((4-([1,1′-biphenyl]-3-yl)-5-chloropyrimidin-2-yl)amino)pyridin-3-yl)-1-oxo-2,8-diazaspiro[4.5]decan-8-yl)-7-oxoheptyl)oxy)-2-(2,6-dioxopiperidin-3-yl)isoindoline-1,3-dione]	< 500 nM
O=C1CCC(Nc2ccc(C3CCN(C(=O)CN4CCC5(CC4)CCN(c4cncc(Nc6ncc(Cl)c(-c7cccc(C8CC8)c7)n6)c4)C5=O)CC3)cc2)C(=O)N1 (stereo not drawn) [Compound 200, 3-((4-(1-(2-(2-(5-((5-chloro-4-(3-cyclopropylphenyl)pyrimidin-2-yl)amino)pyridin-3-yl)-1-oxo-2,8-diazaspiro[4.5]decan-8-yl)acetyl)piperidin-4-yl)phenyl)amino)piperidine-2,6-dione]	< 500 nM
O=C1CCC(N2Cc3cc(C4CCN(CC(=O)N5CCC(C(=O)Nc6cncc(Nc7ncc(Cl)c(-c8cccc(C9CC9)c8)n7)c6)CC5)CC4)ccc3C2=O)C(=O)N1 (stereo not drawn) [Compound 203, N-(5-((5-chloro-4-(3-cyclopropylphenyl)pyrimidin-2-yl)amino)pyridin-3-yl)-1-(2-(4-(2-(2,6-dioxopiperidin-3-yl)-1-oxoisoindolin-5-yl)piperidin-1-yl)acetyl)piperidine-4-carboxamide]	< 500 nM
O=C1CCC(Nc2ccc(C3CCN(CC(=O)N4CCC5(CC4)CCN(c4cncc(Nc6ncc(Cl)c(-c7cccc(C8CCCC8)c7)n6)c4)C5=O)CC3)cc2)C(=O)N1 (stereo not drawn) [Compound 192, 3-((4-(1-(2-(2-(5-((5-chloro-4-(3-cyclopentylphenyl)pyrimidin-2-yl)amino)pyridin-3-yl)-1-oxo-2,8-diazaspiro[4.5]decan-8-yl)-2-oxoethyl)piperidin-4-yl)phenyl)amino)piperidine-2,6-dione]	< 500 nM

Now from value to molecule:

DC50	SMILES
< 500 nM	O=C(COc1cccc2c1C(=O)N(C1CCC(=O)NC1=O)C2=O)NCCCCCCCC(=O)N1CCC2(CC1)CCN(c1cncc(Nc3ncc(Cl)c(-c4cccc(-c5ccccc5)c4)n3)c1)C2=O (stereo not drawn) [Compound 77, N-(8-(2-(5-((4-([1,1′-biphenyl]-3-yl)-5-chloropyrimidin-2-yl)amino)pyridin-3-yl)-1-oxo-2,8-diazaspiro[4.5]decan-8-yl)-8-oxooctyl)-2-((2-(2,6-dioxopiperidin-3-yl)-1,3-dioxoisoindolin-4-yl)oxy)acetamide]
< 500 nM	O=C1CCC(Nc2ccc(C3CCN(CC(=O)N4CCC5(CC4)CCN(c4cncc(Nc6ncc(Cl)c(-c7cccc(N8CCC8)c7)n6)c4)C5=O)CC3)cc2)C(=O)N1 (stereo not drawn) [Compound 188, 3-((4-(1-(2-(2-(5-((4-(3-(azetidin-1-yl)phenyl)-5-chloropyrimidin-2-yl)amino)pyridin-3-yl)-1-oxo-2,8-diazaspiro[4.5]decan-8-yl)-2-oxoethyl)piperidin-4-yl)phenyl)amino)piperidine-2,6-dione]
< 500 nM	O=C1CCC(N2C(=O)c3cccc(OCCCCCCCC(=O)N4CCC5(CC4)CCN(c4cncc(Nc6ncc(Cl)c(-c7cccc(-c8ccccc8)c7)n6)c4)C5=O)c3C2=O)C(=O)N1 (stereo not drawn) [Compound 79, 4-((8-(2-(5-((4-([1,1′-biphenyl]-3-yl)-5-chloropyrimidin-2-yl)amino)pyridin-3-yl)-1-oxo-2,8-diazaspiro[4.5]decan-8-yl)-8-oxooctyl)oxy)-2-(2,6-dioxopiperidin-3-yl)isoindoline-1,3-dione]
< 500 nM	O=C1CCC(N2Cc3cc(OC4CCN(C(=O)CN5CCC6(CC5)CCN(c5cncc(Nc7ncc(Cl)c(-c8cccc(C9CC9)c8)n7)c5)C6=O)CC4)ccc3C2=O)C(=O)N1 (stereo not drawn) [Compound 199, 3-(5-((1-(2-(2-(5-((5-chloro-4-(3-cyclopropylphenyl)pyrimidin-2-yl)amino)pyridin-3-yl)-1-oxo-2,8-diazaspiro[4.5]decan-8-yl)acetyl)piperidin-4-yl)oxy)-1-oxoisoindolin-2-yl)piperidine-2,6-dione]
< 500 nM	O=C1CCC(Nc2ccc(N3CCC(CN4CCC(C(=O)Nc5cncc(Nc6ncc(Cl)c(-c7cccc(-c8ccccc8)c7)n6)c5)CC4)CC3)cc2)C(=O)N1 (stereo not drawn) [Compound 187, N-(5-((4-([1,1′-biphenyl]-3-yl)-5-chloropyrimidin-2-yl)amino)pyridin-3-yl)-1-((1-(4-((2,6-dioxopiperidin-3-yl)amino)phenyl)piperidin-4-yl)methyl)piperidine-4-carboxamide]
500 to 1000 nM	O=C(COc1ccc2c(c1)C(=O)N(C1CCC(=O)NC1=O)C2=O)NCCCCCCCCCC(=O)Nc1cncc(Nc2ncc(Cl)c(-c3cccc(-c4ccccc4)c3)n2)c1 (stereo not drawn) [Compound 59, N-(5-((4-([1,1′-biphenyl]-3-yl)-5-chloropyrimidin-2-yl)amino)pyridin-3-yl)-10-(2-((2-(2,6-dioxopiperidin-3-yl)-1,3-dioxoisoindolin-5-yl)oxy)acetamido)decanamide]
1000 to 5000 nM	O=C1CCC(Nc2ccc(N3CCC(CN4CCC5(CC4)CCN(c4cncc(Nc6ncc(Cl)c(-c7ccc(Cl)cc7)n6)c4)C5=O)CC3)cc2)C(=O)N1 (stereo not drawn) [Compound 174, 3-((4-(4-((2-(5-((5-chloro-4-(4-chlorophenyl)pyrimidin-2-yl)amino)pyridin-3-yl)-1-oxo-2,8-diazaspiro[4.5]decan-8-yl)methyl)piperidin-1-yl)phenyl)amino)piperidine-2,6-dione]
< 500 nM	O=C1CCC(N2Cc3cc(NCCCCC(=O)N4CCC5(CC4)CCN(c4cncc(Nc6ncc(Cl)c(-c7cccc(-c8ccccn8)c7)n6)c4)C5=O)ccc3C2=O)C(=O)N1 (stereo not drawn) [Compound 195, 3-(5-((5-(2-(5-((5-chloro-4-(3-(pyridin-2-yl)phenyl)pyrimidin-2-yl)amino)pyridin-3-yl)-1-oxo-2,8-diazaspiro[4.5]decan-8-yl)-5-oxopentyl)amino)-1-oxoisoindolin-2-yl)piperidine-2,6-dione]
